Measured values published in patent US10696651B2, “Heterocyclic compound” (Takeda Pharmaceutical Company Limited, priority 2016, dated 2020).
Structures can show the parent of a compound that is named as a salt. Where two headings read alike, the source gives them in different places.

How the values were obtained:
[1] = target: T1, human GCN2 full-length protein (Homo sapiens, UniProt Q9P2K8); assay: GCN2 enzyme inhibition assay (LanthaScreen TR-FRET); format: biochemical; settings: GCN2 enzyme inhibitory activity at compound concentration of 3 μM, read-out: inhibitory rate
T1 construct: purchased Carna Biosciences, Inc
Procedure, shortened: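 Full-length human GCN2 was preincubated with compound for 1 hr at room temperature, then reacted for 1 hr with substrate and ATP added from a 570 μM ATP / 390 nM substrate solution (stock concentrations). Phosphorylation was detected by TR-FRET with a terbium-labelled anti-eIF2alpha antibody after 1 hr, with enzyme-free wells as control.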

[2] = test system: osteosarcoma cell line U-2-OS; assay: In vitro cell proliferation inhibition assay (CellTiter-Glo, low amino acid media); format: cell-based; settings: Homo sapiens, U2OS, 72 h, cell proliferation inhibitory rate, McCoy's 5A low amino acid media
Description: A cell suspension (40 μL) (1000 cells/well) of osteosarcoma cell line U-2-OS obtained from ATCC (American Type Culture Collection) was seeded on a 384 plate using McCoy's 5A low amino acid media (amino acid content 25%). The seeded cells were incubated (37° C., 5% CO2) overnight to 24 hr at the longest. Each example compound was dissolved (10 mM) in DMSO, delivered to wells by using TECAN HP D300 (TECAN), and the plate was incubated for 72 hr (37° C., 5% CO2). A well without addition of compound was treated similarly as a control group. Celltiter-Glo (registered trade mark) Luminescent Cell Viability Assay reagent (Promega KK) equilibrated at room temperature was added (40 μL/well) to cells in each well before compound treatment (untreated group) and 72 hours after compound treatment. After incubation for 10 min, cell proliferation inhibitory rate was measured by the amount of ATP which is a cell viability marker. Luminescence of cells showing ATP amount was measured using ARVO MX (PerkinElmer). Based on the luminescence values of the untreatment group, the control group without addition of Example compound solution, and the treatment group with addition of Example compound, the cell proliferation inhibitory rate (%) of the test compound at a compound concentration of 100 nM was calculated by the following formula and the results thereof are shown in Tables 4-1, 4-2. Inhibitory rate (%)=(1−(luminescence value of treatment group−luminescence value of untreatment group)÷(luminescence value of control group−luminescence value of untreatment group))×100

T1 sequence (Q9P2K8 whole entry): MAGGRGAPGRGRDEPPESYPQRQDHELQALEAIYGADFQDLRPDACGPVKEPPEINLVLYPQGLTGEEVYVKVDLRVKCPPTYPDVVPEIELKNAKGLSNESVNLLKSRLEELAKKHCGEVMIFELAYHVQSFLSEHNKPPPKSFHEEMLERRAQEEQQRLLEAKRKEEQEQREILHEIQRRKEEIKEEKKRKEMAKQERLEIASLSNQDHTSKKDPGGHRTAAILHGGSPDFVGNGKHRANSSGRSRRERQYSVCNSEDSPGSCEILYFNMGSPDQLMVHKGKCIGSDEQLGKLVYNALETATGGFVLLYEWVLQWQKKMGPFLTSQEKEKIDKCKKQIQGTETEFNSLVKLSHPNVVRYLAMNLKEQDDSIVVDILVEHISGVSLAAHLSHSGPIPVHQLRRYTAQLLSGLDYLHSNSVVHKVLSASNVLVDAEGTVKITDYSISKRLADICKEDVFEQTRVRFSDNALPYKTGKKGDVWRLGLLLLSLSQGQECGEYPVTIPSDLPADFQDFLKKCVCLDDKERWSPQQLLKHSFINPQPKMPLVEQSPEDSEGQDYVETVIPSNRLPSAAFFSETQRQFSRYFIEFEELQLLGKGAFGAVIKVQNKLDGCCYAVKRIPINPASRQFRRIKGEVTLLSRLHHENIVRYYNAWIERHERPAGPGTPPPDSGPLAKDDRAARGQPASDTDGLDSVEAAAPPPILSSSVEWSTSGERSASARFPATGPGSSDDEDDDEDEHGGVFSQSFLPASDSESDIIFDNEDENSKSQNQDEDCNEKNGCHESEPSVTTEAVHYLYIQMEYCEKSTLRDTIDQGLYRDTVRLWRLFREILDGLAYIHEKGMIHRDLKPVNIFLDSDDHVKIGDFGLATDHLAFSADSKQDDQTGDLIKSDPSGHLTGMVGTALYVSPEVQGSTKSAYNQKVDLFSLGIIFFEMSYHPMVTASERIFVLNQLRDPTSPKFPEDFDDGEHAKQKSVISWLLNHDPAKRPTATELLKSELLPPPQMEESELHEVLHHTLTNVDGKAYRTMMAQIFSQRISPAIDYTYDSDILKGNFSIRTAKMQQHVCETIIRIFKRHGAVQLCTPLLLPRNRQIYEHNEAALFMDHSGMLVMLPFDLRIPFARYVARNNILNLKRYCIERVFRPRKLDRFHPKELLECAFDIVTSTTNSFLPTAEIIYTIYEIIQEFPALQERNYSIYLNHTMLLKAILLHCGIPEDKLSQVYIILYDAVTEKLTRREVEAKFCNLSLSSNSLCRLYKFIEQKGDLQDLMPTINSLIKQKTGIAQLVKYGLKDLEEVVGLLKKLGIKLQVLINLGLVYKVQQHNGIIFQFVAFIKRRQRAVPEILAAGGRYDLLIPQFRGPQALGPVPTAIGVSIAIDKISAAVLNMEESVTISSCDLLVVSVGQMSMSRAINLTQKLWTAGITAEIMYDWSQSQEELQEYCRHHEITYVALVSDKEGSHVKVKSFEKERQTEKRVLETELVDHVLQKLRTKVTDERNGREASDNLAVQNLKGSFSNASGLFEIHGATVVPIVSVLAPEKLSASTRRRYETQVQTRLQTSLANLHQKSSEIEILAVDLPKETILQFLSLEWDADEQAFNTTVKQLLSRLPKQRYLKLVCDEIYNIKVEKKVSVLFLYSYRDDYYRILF

Structure (SMILES)	inhibition at 3 µM ([1]; Table 3-2) [%]	inhibition at 3 µM ([1]; Table 3-1) [%]	inhibition at 0.1 µM ([2]; Table 4-2) [%]	inhibition at 0.1 µM ([2]; Table 4-1) [%]
Cc1cc(Br)cc(S(=O)(=O)Nc2ccc(F)c(C#Cc3cnc4[nH]ncc4c3)c2F)c1 [Example 18, 3-bromo-N-(2,4-difluoro-3-(1H-pyrazolo[3,4-b]pyridin-5-ylethynyl)phenyl)-5-methylbenzenesulfonamide]		100		63
Cc1ncc(Cl)cc1S(=O)(=O)Nc1ccc(F)c(C#Cc2cnc(N[C@H]3CC[C@H](O)CC3)nc2)c1F [Example 188, 5-chloro-N-(2,4-difluoro-3-((2-((trans-4-hydroxycyclohexyl)amino)pyrimidin-5-yl)ethynyl)phenyl)-2-methylpyridine-3-sulfonamide]	100		77	
COc1ncc(Cl)cc1S(=O)(=O)Nc1ccc(F)c(C#Cc2cnc3[nH]ncc3c2)c1F [Example 5, 5-chloro-N-(2,4-difluoro-3-(1H-pyrazolo[3,4-b]pyridin-5-ylethynyl)phenyl)-2-methoxypyridine-3-sulfonamide]		99		91
O=S(=O)(Nc1ccc(F)c(C#Cc2cnc3[nH]ncc3c2)c1F)c1cc(Cl)ccc1F [Example 26, 5-chloro-N-(2,4-difluoro-3-(1H-pyrazolo[3,4-b]pyridin-5-ylethynyl)phenyl)-2-fluorobenzenesulfonamide TFA Salt]		99		41
COc1ncc(Cl)cc1S(=O)(=O)Nc1ccc(F)c(C#Cc2cnc(N[C@H]3CC[C@H](O)CC3)nc2)c1F [Example 174, 5-chloro-N-(2,4-difluoro-3-((2-((trans-4-hydroxycyclohexyl)amino)pyrimidin-5-yl)ethynyl)phenyl)-2-methoxypyridine-3-sulfonamide]	99		83	
COc1c(CO)cc(Cl)cc1S(=O)(=O)Nc1ccc(F)c(C#Cc2cnc(N[C@H]3CC[C@H](O)CC3)nc2)c1F [Example 153, 5-chloro-N-(2,4-difluoro-3-((2-((trans-4-hydroxycyclohexyl)amino)pyrimidin-5-yl)ethynyl)phenyl)-3-(hydroxymethyl)-2-methoxybenzenesulfonamide]	99		78	
O=S(=O)(Nc1ccc(F)c(C#Cc2cnc(N[C@H]3CC[C@H](O)CC3)nn2)c1F)c1cc(Cl)cc(CO)c1Cl [Example 177, 2,5-dichloro-N-(2,4-difluoro-3-((3-((trans-4-hydroxycyclohexyl)amino)-1,2,4-triazin-6-yl)ethynyl)phenyl)-3-(hydroxymethyl)benzenesulfonamide]	100		72	
COc1c(CO)cc(Cl)cc1S(=O)(=O)Nc1ccc(F)c(C#Cc2cnc(N)nn2)c1F [Example 130, N-(3-((3-amino-1,2,4-triazin-6-yl)ethynyl)-2,4-difluorophenyl)-5-chloro-3-(hydroxymethyl)-2-methoxybenzenesulfonamide]	99		68	
Cc1ncc(Cl)cc1S(=O)(=O)Nc1ccc(F)c(C#Cc2cnc(N)nn2)c1F [Example 158, N-(3-((3-amino-1,2,4-triazin-6-yl)ethynyl)-2,4-difluorophenyl)-5-chloro-2-methylpyridine-3-sulfonamide]	99		43	
Nc1ncc(C#Cc2c(F)ccc(NS(=O)(=O)c3cc(Cl)cn4c(Cl)cnc34)c2F)cn1 [Example 165, N-(3-((2-aminopyrimidin-5-yl)ethynyl)-2,4-difluorophenyl)-3,6-dichloroimidazo[1,2-a]pyridine-8-sulfonamide]	96		27	
O=S(=O)(Nc1ccc(F)c(C#Cc2cnc3[nH]ncc3c2)c1F)c1cc(Cl)cc2c1OCC2 [Example 8, 5-chloro-N-(2,4-difluoro-3-(1H-pyrazolo[3,4-b]pyridin-5-ylethynyl)phenyl)-2,3-dihydro-1-benzofuran-7-sulfonamide]		100		78
Cc1ccc(Cl)cc1S(=O)(=O)Nc1ccc(F)c(C#Cc2cnc(N)nc2)c1F [Example 19, N-(3-((2-aminopyrimidin-5-yl)ethynyl)-2,4-difluorophenyl)-5-chloro-2-methylbenzenesulfonamide]		98		87
O=S(=O)(Nc1ccc(F)c(C#Cc2cnc3[nH]ncc3c2)c1F)c1cc(Cl)cc(Cl)c1Cl [Example 20, 2,3,5-trichloro-N-(2,4-difluoro-3-(1H-pyrazolo[3,4-b]pyridin-5-ylethynyl)phenyl)benzenesulfonamide]		100		63

Continued, in another order:

inhibition at 3 µM ([1]; Table 3-2) [%]	inhibition at 3 µM ([1]; Table 3-1) [%]	Structure (SMILES)	inhibition at 0.1 µM ([2]; Table 4-2) [%]	inhibition at 0.1 µM ([2]; Table 4-1) [%]
103		C[C@H](CO)Nc1ncc(C#Cc2c(F)ccc(NS(=O)(=O)c3cc(Cl)cc(CO)c3Cl)c2F)cn1 [Example 180, 2,5-dichloro-N-(2,4-difluoro-3-((2-(((2R)-1-hydroxypropan-2-yl)amino)pyrimidin-5-yl)ethynyl)phenyl)-3-(hydroxymethyl)benzenesulfonamide]	76	
99		COc1c(CO)cc(Cl)cc1S(=O)(=O)Nc1ccc(F)c(C#Cc2cnc(N[C@H](C)CO)nc2)c1F [Example 150, 5-chloro-N-(2,4-difluoro-3-((2-(((2R)-1-hydroxypropan-2-yl)amino)pyrimidin-5-yl)ethynyl)phenyl)-3-(hydroxymethyl)-2-methoxybenzenesulfonamide]	77	
99		COc1c(CO)cc(Cl)cc1S(=O)(=O)Nc1ccc(F)c(C#Cc2cnc(NC3COC3)nc2)c1F [Example 140, 5-chloro-N-(2,4-difluoro-3-((2-(oxetan-3-ylamino)pyrimidin-5-yl)ethynyl)phenyl)-3-(hydroxymethyl)-2-methoxybenzenesulfonamide]	76	
103		CNc1ncc(Cl)cc1S(=O)(=O)Nc1ccc(F)c(C#Cc2cnc(N[C@H](C)CO)nc2)c1F [Example 183, 5-chloro-N-(2,4-difluoro-3-((2-(((2R)-1-hydroxypropan-2-yl)amino)pyrimidin-5-yl)ethynyl)phenyl)-2-(methylamino)pyridine-3-sulfonamide]	77	
99		COc1c(CO)cc(Cl)cc1S(=O)(=O)Nc1ccc(F)c(C#Cc2cnc(NC3CCOC3)nc2)c1F (stereo not shown) [Example 141, 5-chloro-N-(2,4-difluoro-3-((2-(tetrahydrofuran-3-ylamino)pyrimidin-5-yl)ethynyl)phenyl)-3-(hydroxymethyl)-2-methoxybenzenesulfonamide]	75	
100		O=S(=O)(Nc1ccc(F)c(C#Cc2cnc(N[C@H]3CC[C@H](O)CC3)nc2)c1F)c1cc(Cl)cc(CO)c1Cl [Example 176, 2,5-dichloro-N-(2,4-difluoro-3-((2-((trans-4-hydroxycyclohexyl)amino)pyrimidin-5-yl)ethynyl)phenyl)-3-(hydroxymethyl)benzenesulfonamide]	77	
99		COc1c(CO)cc(Cl)cc1S(=O)(=O)Nc1ccc(F)c(C#Cc2cnc(NCC3CCOC3)nc2)c1F (stereo not shown) [Example 145, 5-chloro-N-(2,4-difluoro-3-((2-((tetrahydrofuran-3-ylmethyl)amino)pyrimidin-5-yl)ethynyl)phenyl)-3-(hydroxymethyl)-2-methoxybenzenesulfonamide]	69	
102		O=S(=O)(Nc1ccc(F)c(C#Cc2cnc(NC3COC3)nn2)c1F)c1cc(Cl)cc(CO)c1Cl [Example 179, 2,5-dichloro-N-(2,4-difluoro-3-((3-(oxetan-3-ylamino)-1,2,4-triazin-6-yl)ethynyl)phenyl)-3-(hydroxymethyl)benzenesulfonamide]	75	
	100	O=S(=O)(Nc1ccc(F)c(C#Cc2cnc3[nH]ncc3c2)c1F)c1cc(Cl)cc(CO)c1Cl [Example 1, 2,5-dichloro-N-(2,4-difluoro-3-(1H-pyrazolo[3,4-b]pyridin-5-ylethynyl)phenyl)-3-(hydroxymethyl)benzenesulfonamide]		66
99		Cc1ncc(Cl)cc1S(=O)(=O)Nc1ccc(F)c(C#Cc2cnc(N[C@H](C)CO)nc2)c1F [Example 189, 5-chloro-N-(2,4-difluoro-3-((2-(((2R)-1-hydroxypropan-2-yl)amino)pyrimidin-5-yl)ethynyl)phenyl)-2-methylpyridine-3-sulfonamide]	79	
